Measured values: US20230374034A1, “NOVEL BICYCLIC COMPOUNDS” (PRISM BIOLAB CO., LTD., priority 2020, published 2023)
Like-named read-outs stand apart in the source and are kept apart here.

System: NICD (Notch intracellular domain) CSL-bla reporter in HeLa cells
Assay: Notch assay (CellSensor T-REx NICD CSL-bla HeLa beta-lactamase reporter; Method 1 / Method 2)
Format: cell-based
Settings: Homo sapiens, 10 μM compound, read-out: inhibiton (%) at 10 μM
How it was run: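 HeLa cells carrying doxycycline-inducible NICD and a CSL-driven beta-lactamase reporter, 10^3 cells/well, were treated with compound plus doxycycline for 16-20 h at 37 °C. CCF4-AM substrate was loaded for 4 h at room temperature; background-subtracted blue (460 nm)/green (530 nm) emission ratio taken per well.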

[1] = Method 2 (40 nL of 1000× compound added to plate with Echo)
[2] = Method 1 (10× compound prepared in assay medium, added to plated cells)

| SMILES | inhibition at 10 µM [1] [%] | inhibition at 10 µM [2] [%] |
| --- | --- | --- |
| O=C(NCCc1ccccc1)[C@H](Cc1ccccc1)N1CC2N(C(=O)OCCc3ccc(O)cc3)O[C@H](Cc3ccc(O)cc3)C(=O)N2[C@@H](Cc2ccc(O)cc2)C1=O (stereo partly drawn) [Compound I-116, 4-hydroxyphenethyl (3R,6S)-3,6-bis(4-hydroxybenzyl)-4,7-dioxo-8-((S)-1-oxo-1-(phenethylamino)-3-phenylpropan-2-yl)hexahydropyrazino[2,1-c][1,2,4]oxadiazine-1(6H)-carboxylate] | 62.5 | – |
| CCCC[C@@H](C(=O)NCCc1ccccc1)N1CC2N(C(=O)OCCc3ccc(O)cc3)O[C@H](Cc3ccc(O)cc3)C(=O)N2[C@@H](Cc2ccc(O)cc2)C1=O (stereo partly drawn) [Compound I-119, 4-hydroxyphenethyl (3R,6S)-3,6-bis(4-hydroxybenzyl)-4,7-dioxo-8-((S)-1-oxo-1-(phenethylamino)hexan-2-yl)hexahydropyrazino[2,1-c][1,2,4]oxadiazine-1(6H)-carboxylate] | 55.7 | – |
| CC(C)C[C@H]1ON(CCCc2ccccc2)C2CN(C3CCNCC3)C(=O)[C@H](CC(C)C)N2C1=O (stereo partly drawn) [Compound I-147, (3R,6S)-3,6-diisobutyl-1-(3-phenylpropyl)-8-(piperidin-4-yl)tetrahydropyrazino[2,1-c][1,2,4]oxadiazine-4,7(3H,6H)-dione] | 50.2 | – |
| CC(C)CCOC(=O)N1O[C@H](Cc2ccc(O)cc2)C(=O)N2C1CN([C@@H](CC(C)C)C(=O)NCCc1ccccc1)C(=O)[C@@H]2Cc1ccc(O)cc1 (stereo partly drawn) [Compound I-114, isopentyl (3R,6S)-3,6-bis(4-hydroxybenzyl)-8-((S)-4-methyl-1-oxo-1-(phenethylamino)pentan-2-yl)-4,7-dioxohexahydropyrazino[2,1-c][1,2,4]oxadiazine-1(6H)-carboxylate] | 56.3 | – |
| CCCC[C@@H](C(=O)NCCc1ccccc1)N1CC2N(C(=O)OCCc3ccc(O)cc3)O[C@H](CC(C)C)C(=O)N2[C@@H](Cc2ccc(O)cc2)C1=O (stereo partly drawn) [Compound I-103, 4-hydroxyphenethyl (3R,6S)-6-(4-hydroxybenzyl)-3-isobutyl-4,7-dioxo-8-((S)-1-oxo-1-(phenethylamino)hexan-2-yl)hexahydropyrazino[2,1-c][1,2,4]oxadiazine-1(6H)-carboxylate] | 59.9 | – |
| CCCCOC(=O)N1O[C@H](CCC(N)=O)C(=O)N2C1CN(CCO)C(=O)[C@@H]2C (stereo partly drawn) [Compound I-50, (3R,6S)-butyl 3-(3-amino-3-oxopropyl)-8-(2-hydroxyethyl)-6-methyl-4,7-dioxohexahydropyrazino[2,1-c][1,2,4]oxadiazine-1(6H)-carboxylate] | 64.6 | – |
| CC(C)C[C@@H](C(=O)NCCc1ccccc1)N1CC2N(C(=O)OCCc3ccc(O)cc3)O[C@H](Cc3ccccc3)C(=O)N2[C@@H](C)C1=O (stereo partly drawn) [Compound I-121, 4-hydroxyphenethyl (3R,6S)-3-benzyl-6-methyl-8-((S)-4-methyl-1-oxo-1-(phenethylamino)pentan-2-yl)-4,7-dioxohexahydropyrazino [2,1-c][1,2,4]oxadiazine-1(6H)-carboxylate] | 63.3 | – |
| CC(C)N1CC2N(C(=O)OCc3cccc4ccccc34)O[C@H](Cc3ccccc3)C(=O)N2[C@@H](Cc2ccc(O)cc2)C1=O (stereo partly drawn) [Compound I-17, (3R,6S)-naphthalen-1-ylmethyl 3-benzyl-6-(4-hydroxybenzyl)-8-isopropyl-4,7-dioxohexahydropyrazino[2,1-c][1,2,4]oxadiazine-1(6H)-carboxylate] | – | 88 |
| CCCCCOC(=O)N1O[C@H](Cc2ccccc2)C(=O)N2C1CN([C@@H](Cc1ccc(O)cc1)C(=O)NCCc1ccccc1)C(=O)[C@@H]2Cc1ccc(O)cc1 (stereo partly drawn) [Compound I-113, pentyl (3R,6S)-3-benzyl-6-(4-hydroxybenzyl)-8-((S)-3-(4-hydroxyphenyl)-1-oxo-1-(phenethylamino)propan-2-yl)-4,7-dioxohexahydropyrazino[2,1-c][1,2,4]oxadiazine-1(6H)-carboxylate] | 62.9 | – |
| CC(C)[C@H]1ON(C(=O)OCC2CCCCC2)C2CN(Cc3ccccc3)C(=O)[C@H](Cc3ccc(O)cc3)N2C1=O (stereo partly drawn) [Compound I-7, (3R,6S)-cyclohexylmethyl 8-benzyl-6-(4-hydroxybenzyl)-3-isopropyl-4,7-dioxohexahydropyrazino[2,1-c][1,2,4]oxadiazine-1(6H)-carboxylate] | – | 55.5 |
| CCCC[C@H]1C(=O)N(CCC(C)C)CC2N(C(=O)OCc3cccc4ccccc34)O[C@H](CC(N)=O)C(=O)N21 (stereo partly drawn) [Compound I-20, (3R,6S)-naphthalen-1-ylmethyl 3-(2-amino-2-oxoethyl)-6-butyl-8-isopentyl-4,7-dioxohexahydropyrazino[2,1-c][1,2,4]oxadiazine-1(6H)-carboxylate] | – | 66.1 |
| CC(C)NC(=O)N1O[C@H](CCCNC(=N)N)C(=O)N2C1CN(Cc1cccc3ccccc13)C(=O)[C@@H]2C (stereo partly drawn) [Compound I-51, (3R,6S)-3-(3-guanidinopropyl)-N-isopropyl-6-methyl-8-(naphthalen-1-ylmethyl)-4,7-dioxohexahydropyrazino[2,1-c][1,2,4]oxadiazine-1(6H)-carboxamide] | 55.3 | – |
| CC(C)CCNC(=O)[C@H](Cc1ccc(O)cc1)N1CC2N(C(=O)OCCc3ccc(O)cc3)O[C@H](CC(C)C)C(=O)N2[C@@H](Cc2ccc(O)cc2)C1=O (stereo partly drawn) [Compound I-95, 4-hydroxyphenethyl (3R,6S)-6-(4-hydroxybenzyl)-8-((S)-3-(4-hydroxyphenyl)-1-(isopentylamino)-1-oxopropan-2-yl)-3-isobutyl-4,7-dioxohexahydropyrazino[2,1-c][1,2,4]oxadiazine-1(6H)-carboxylate] | 60.1 | – |
| O=C(NCCO)[C@H](Cc1ccccc1)N1CC2N(C(=O)OCCc3ccc(O)cc3)O[C@H](Cc3ccccc3)C(=O)N2[C@@H](Cc2ccccc2)C1=O (stereo partly drawn) [Compound I-80, 4-hydroxyphenethyl (3R,6S)-3,6-dibenzyl-8-(S)-1-(2-hydroxyethyl)amino)-1-oxo-3-phenylpropan-2-yl)-4,7-dioxohexahydropyrazino[2,1-c][1,2,4]oxadiazine-1(6H)-carboxylate] | 63 | – |
| CC[C@H](C)OC(=O)N1O[C@H](CC2CCCCC2)C(=O)N2C1CN(CCc1ccccc1)C(=O)[C@@H]2CCCCN (stereo partly drawn) [Compound I-38, (3R,6S)-(S)-sec-butyl 6-(4-aminobutyl)-3-(cyclohexylmethyl)-4,7-dioxo-8-phenethylhexahydropyrazino [2,1-c][1,2,4]oxadiazine-1(6H)-carboxylate] | 97.3 | – |
| CCCCCCOC(=O)N1O[C@@H](CCCC)C(=O)N2C1CN(Cc1ccccc1)C(=O)[C@@H]2Cc1ccc(O)cc1 (stereo partly drawn) [Compound I-4, (3S,6S)-hexyl 8-benzyl-3-butyl-6-(4-hydroxybenzyl)-4,7-dioxohexahydropyrazino[2,1-c][1,2,4]oxadiazine-1(6H)-carboxylate] | – | 57.1 |
| CC(C)[C@@H]1ON(C(=O)OCc2cccc3ccccc23)C2CN(C(C)C)C(=O)[C@H](Cc3ccc(O)cc3)N2C1=O (stereo partly drawn) [Compound I-22, (3S,6S)-naphthalen-1-ylmethyl 6-(4-hydroxybenzyl)-3,8-diisopropyl-4,7-dioxohexahydropyrazino[2,1-c][1,2,4]oxadiazine-1(6H)-carboxylate] | – | 72.8 |
| CC(C)C[C@H]1ON(C(=O)OCc2cccc3ccccc23)C2CN(C3CCN(C)CC3)C(=O)[C@H](CC(C)C)N2C1=O (stereo partly drawn) [Compound I-137, naphthalen-1-ylmethyl (3R,6S)-3,6-diisobutyl-8-(1-methylpiperidin-4-yl)-4,7-dioxohexahydropyrazino[2,1-c][1,2,4]oxadiazine-1(6H)-carboxylate] | 81.8 | – |
| CCCC[C@H]1C(=O)N(CCC(N)=O)CC2N(C(=O)OCc3cccc4ccccc34)O[C@@H](Cc3ccccc3)C(=O)N21 (stereo partly drawn) [Compound I-25, (3S,6S)-naphthalen-1-ylmethyl 8-(3-amino-3-oxopropyl)-3-benzyl-6-butyl-4,7-dioxohexahydropyrazino[2,1-c][1,2,4]oxadiazine-1(6H)-carboxylate] | – | 70.3 |
| O=C(NCCCO)[C@H](Cc1ccccc1)N1CC2N(C(=O)OCCc3ccc(O)cc3)O[C@H](Cc3ccccc3)C(=O)N2[C@@H](Cc2ccccc2)C1=O (stereo partly drawn) [Compound I-81, 4-hydroxyphenethyl (3R,6S)-3,6-dibenzyl-8-((S)-1-((3-hydroxypropyl)amino)-1-oxo-3-phenylpropan-2-yl)-4,7-dioxohexahydro-pyrazino[2,1-c] [1,2,4]oxadiazine-1(6H)-carboxylate] | 53 | – |
| CC(C)C[C@H]1ON(C(=O)OCCc2ccccc2)C2CN([C@@H](Cc3ccc(O)cc3)C(=O)NCCc3ccccc3)C(=O)[C@H](Cc3ccc(O)cc3)N2C1=O (stereo partly drawn) [Compound I-102, phenethyl (3R,6S)-6-(4-hydroxybenzyl)-8-((S)-3-(4-hydroxyphenyl)-1-oxo-1-(phenethylamino)propan-2-yl)-3-isobutyl-4,7-dioxohexahydropyrazino[2,1-c][1,2,4]oxadiazine-1(6H)-carboxylate] | 67.3 | – |
| CCCC[C@@H](C(=O)NCCC(C)C)N1CC2N(C(=O)OCCc3ccc(O)cc3)O[C@H](CC(C)C)C(=O)N2[C@@H](Cc2ccc(O)cc2)C1=O (stereo partly drawn) [Compound I-97, 4-hydroxyphenethyl (3R,6S)-6-(4-hydroxybenzyl)-3-isobutyl-8-((S)-1-(isopentylamino)-1-oxohexan-2-yl)-4,7-dioxohexahydropyrazino[2,1-c][1,2,4]oxadiazine-1(6H)-carboxylate] | 57.3 | – |
| CCCCCOC(=O)N1O[C@H](CC(C)C)C(=O)N2C1CN([C@@H](Cc1ccc(O)cc1)C(=O)NCCCC(C)C)C(=O)[C@@H]2Cc1ccc(O)cc1 (stereo partly drawn) [Compound I-100, pentyl (3R,6S)-6-(4-hydroxybenzyl)-8-((S)-3-(4-hydroxyphenyl)-1-((4-methylpentyl)amino)-1-oxopropan-2-yl)-3-isobutyl-4,7-dioxohexahydropyrazino [2,1-c][1,2,4]oxadiazine-1(6H)-carboxylate] | 63.8 | – |
